# Experimental data taken from patent US9200171B2, “AZO compound and ink containing the compound” (MITSUBISHI CHEMICAL CORPORATION, priority 2011, dated 2015).
# What was measured:
# [1] = Solubility C (saturated concentration at 5° C.) of compound in low-polarity solvent and product εC; assay type: physicochemical; conditions: for Solubility / solubility at 24 h: at 5° C.; for ε · C: C at 5° C.; for solubility at 24 h: organic solvent or mixture, thermodynamic from solid
# Method: The solubility C of each compound in each solvent was measured as follows.
# Each compound was added to each solvent until a dissolution residue came to remain, and the mixture was subjected to an ultrasonic treatment for 30 minutes at 30° C. After the mixture was allowed to stand at 5° C. for 24 hours, centrifugal filtration was performed through a filter of 0.1 μm using a microcentrifuge (centrifugal force 5200×g). The resulting saturated solution was diluted to an appropriate concentration, and measurement of absorption spectra was performed on Hitachi spectrophotometer U-4100 using a quartz cell having an optical path length for measurement of 10 mm. The concentration of each compound was determined from a relationship between the absorbance at the absorption-maximum wavelength λmax (nm) and the molar extinction coefficient ε (L·mol^−1·cm^−1) previously measured, and the solubility C (mol·L^−1) was calculated. Moreover, the value of the product of the molar extinction coefficient ε (L·mol^−1·cm^−1) and the solubility C (mol·L^−1), εC, was determined.
# Sudan Black B (manufactured by Tokyo Chemical Industry Co., Ltd.) that is a commercially available oil-soluble black dye was added to n-decane (relative permittivity 2.0, solubility in water 1 mg/L or less) until a dissolution residue came to remain, and the mixture was subjected to an ultrasonic treatment for 30 minutes at 30° C. After the mixture was allowed to stand at 5° C. for 24 hours, centrifugal filtration was performed through a filter of 0.1 μm using a microcentrifuge (centrifugal force 5200×g). The resulting saturated n-decane solution was diluted to an appropriate concentration.
# [2] = Absorption-maximum wavelength λmax, molar extinction coefficient ε and solution colour in each solvent; assay type: physicochemical
# Method: Each of the compounds 1 to 15 and the comparative example compounds 1 and 2 (1 mg each) was dissolved in each solvent (100 ml) and measurement of absorption spectra was performed on Hitachi spectrophotometer U-4100 using a quartz cell having an optical path length for measurement of 10 mm. From the resulting spectra, absorption-maximum wavelength λmax (nm) and molar extinction coefficient ε ([…]) were determined.
# [3] = n-decane, at absorption-maximum wavelength
# [4] = tetradecane, at absorption-maximum wavelength
# [5] = Isopar M, at absorption-maximum wavelength
# [6] = mixed solvent of n-decane/Isopar L (mixing ratio 1/1)
Solubility ([1]; in n-decane) [mM],Solubility ([1]; in tetradecane) [mM],ε · C ([1]; n-decane),ε · C ([1]; tetradecane),Absorption-maximum wavelength ([2]; n-decane) [nm],Color tone ([2]; n-decane solution),"ε [2, 3] [L/mol/cm]",Absorption-maximum wavelength ([2]; tetradecane) [nm],Color tone ([2]; tetradecane solution),"ε [2, 4] [L/mol/cm]",ε · C ([1]; Isopar M),Absorption-maximum wavelength ([2]; Isopar M) [nm],Color tone ([2]; Isopar M solution),"ε [2, 5] [L/mol/cm]",solubility at 24 h ([1]; in n-decane) [mM],Compound,further results
59,44,4700 cm⁻¹,3500 cm⁻¹,637,blue,79000,639,blue,79000,3400 cm⁻¹,638,blue,78000,–,CCCCC(CC)COC(=O)c1ccc(N=Nc2cc(C#N)c(N=Nc3ccc(N(CC(CC)CCCC)CC(CC)CCCC)cc3NC(C)=O)s2)cc1 (stereo not drawn) [Compound 8],Solubility ([1]; in Isopar M): 44 mM
110,140,7000 cm⁻¹,9300 cm⁻¹,633,blue,66000,635,blue,65000,10400 cm⁻¹,634,blue,65000,–,CCCCC(CC)COC(=O)c1ccc(N=Nc2cc(C#N)c(N=Nc3ccc(N(CC(CC)CCCC)CC(CC)CCCC)cc3C)s2)cc1 (stereo not drawn) [Compound 6],Solubility ([1]; in Isopar M): 160 mM
–,–,3300 cm⁻¹,3300 cm⁻¹,617,blue,57000,618,blue,59000,2000 cm⁻¹,618,blue,59000,58,CCCCC(CC)CN(CC(CC)CCCC)c1cc(NC(C)=O)c(/N=N/c2nc(Cl)c(C=O)s2)cc1OC (stereo not drawn) [Compound 9],solubility at 24 h ([1]; in Isopar M): 34 mM; solubility at 24 h ([1]; in tetradecane): 34 mM
–,–,1800 cm⁻¹,1300 cm⁻¹,638,blue,66000,640,blue,64000,–,–,–,–,27,CCCCC(CC)CN(CC(CC)CCCC)c1ccc(/N=N/c2sc(N=Nc3ccc(C(=O)OCC(C)C)cc3)cc2C#N)c(C(C)C)c1 (stereo not drawn) [Compound 4],solubility at 24 h ([1]; in tetradecane): 20 mM
59,–,4400 cm⁻¹,–,667,blue,76000,–,–,–,–,–,–,–,–,CCCCc1ccc(N=Nc2cc(C#N)c(N=Nc3cc(OC)c(N(CC(CC)CCCC)CC(CC)CCCC)cc3NC(=O)CC)s2)cc1 (stereo not drawn) [Compound 13],–
140,–,6900 cm⁻¹,–,640,blue,50000,–,–,–,–,–,–,–,–,CCCCc1ccc(N=Nc2cc(C#N)c(N=Nc3cc(OC)c(N(CC(CC)CCCC)CC(CC)CCCC)cc3C)s2)cc1 (stereo not drawn) [Compound 7],–
–,–,≤ 10 or cm^−1,≤ 10 or cm^−1,512,red,34000,514,red,39000,≤ 10 or cm^−1,514,red,39000,≤ 0.01,"C=CCn1c(N=Nc2ccc(N(CCC)CCC)cc2NC(C)=O)nc(C#N)c1C#N [Comparative example compound 2, reference compound]",solubility at 24 h ([1]; in Isopar M): ≤ 0.01 mM; solubility at 24 h ([1]; in tetradecane): ≤ 0.01 mM
250,–,12000 cm⁻¹,–,582,blue,46000,–,–,–,–,–,–,–,–,CCCCC(CC)CN(CC(CC)CCCC)c1cc(NC(C)=O)c(N=Nc2sc(C(=O)OCC)c(C)c2C(=O)OCC)cc1OC (stereo not drawn) [Compound 12],–

# Continued, compound first:
Compound,Solubility ([1]; in n-decane) [mM],Solubility ([1]; in tetradecane) [mM],ε · C ([1]; n-decane),ε · C ([1]; tetradecane),Absorption-maximum wavelength ([2]; n-decane) [nm],Color tone ([2]; n-decane solution),"ε [2, 3] [L/mol/cm]",Absorption-maximum wavelength ([2]; tetradecane) [nm],Color tone ([2]; tetradecane solution),"ε [2, 4] [L/mol/cm]",ε · C ([1]; Isopar M),Absorption-maximum wavelength ([2]; Isopar M) [nm],Color tone ([2]; Isopar M solution),"ε [2, 5] [L/mol/cm]",solubility at 24 h ([1]; in n-decane) [mM],further results
CCCCC(CC)CN(CC(CC)CCCC)c1ccc(N=Nc2sc(N=Nc3ccc(C(=O)OCC(C)C)cc3)cc2C#N)c(CC)c1 (stereo not drawn) [Compound 2],27,27,1500 cm⁻¹,1500 cm⁻¹,635,blue,57000,637,blue,54000,–,–,–,–,–,–
CCCCc1ccc(N=Nc2cc(C#N)c(N=Nc3cc(OC)c(N(CC(CC)CCCC)CC(CC)CCCC)cc3NC(C)=O)s2)cc1 (stereo not drawn) [Compound 3],140,150,9900 cm⁻¹,10600 cm⁻¹,667,blue,73000,669,blue,73000,11100 cm⁻¹,668,blue,72000,–,"ε · C ([1]; Isopar L): 8200 cm⁻¹; Solubility ([1]; in Isopar L): 110 mM; Solubility ([1]; in Isopar M): 150 mM; Solubility ([1]; in mixed solvent of n-decane/Isopar L (mixing ratio 1/1)): 63 mM; ε · C [1, 6]: 4700 cm⁻¹; Absorption-maximum wavelength ([2]; Isopar L): 667 nm; Color tone ([2]; Isopar L solution): blue; ε ([2]; Isopar L, at absorption-maximum wavelength): 75000 L/mol/cm; Absorption-maximum wavelength [2, 6]: 667 nm; Color tone [2, 6]: blue; ε [2, 6]: 75000 L/mol/cm"
CCCCCc1ccc(N=Nc2cc(C#N)c(/N=N/c3cc(OC)c(N(CC(CC)CCCC)CC(CC)CCCC)cc3NC(C)=O)s2)cc1 (stereo not drawn) [Compound 5],–,–,16000 cm⁻¹,–,667,blue,75000,–,–,–,–,–,–,–,220,–
CCCCC(CC)COC(=O)C(C#N)=Cc1sc(N=Nc2cc(OC)c(N(CC(CC)CCCC)CC(CC)CCCC)cc2NC(C)=O)nc1Cl (stereo not drawn) [Compound 10],93,36,5700 cm⁻¹,2000 cm⁻¹,656,blue,61000,658,blue,55000,5500 cm⁻¹,657,blue,54000,–,Solubility ([1]; in Isopar M): 64 mM
"CCCCC(CC)CNc1ccc(NCC(CC)CCCC)c2c1C(=O)c1ccccc1C2=O (stereo not drawn) [Comparative example compound 1, reference compound]",–,–,460 cm⁻¹,1600 cm⁻¹,652,blue,17000,651,blue,17000,1200 cm⁻¹,651,blue,17000,27,solubility at 24 h ([1]; in Isopar M): 71 mM; solubility at 24 h ([1]; in tetradecane): 94 mM
CCCCC(CC)CN(CC(CC)CCCC)c1ccc(N=Nc2sc(C=C(C#N)C#N)c(Cl)c2C#N)c(NC(=O)C(CC)CCCC)c1 (stereo not drawn) [Compound 11],89,–,5300 cm⁻¹,–,642,blue,60000,–,–,–,–,–,–,–,–,–
CCCCOc1ccc(N=Nc2sc(N=Nc3ccc(N(CC(CC)CCCC)CC(CC)CCCC)cc3Cl)nc2C)cc1 (stereo not drawn) [Compound 14],150,–,7100 cm⁻¹,–,546,red,47000,–,–,–,–,–,–,–,–,–
